Measurements: article PMC11859928, “Design, Synthesis, and Antiproliferative Activity of Novel Indole/1,2,4-Triazole Hybrids as Tubulin Polymerization Inhibitors” (Pharmaceuticals, 2025)

Experiments:
Format in all cases: cell-based, human
786-0 = experiment: NCI five-dose assay; details: 786-0, Renal cancer
SNB-75 = experiment: NCI five-dose assay; details: SNB-75, CNS cancer
ACHN = experiment: NCI five-dose assay; details: Renal cancer
SNB-19 = experiment: NCI five-dose assay; details: SNB-19, CNS cancer
A498 = experiment: NCI five-dose assay; details: A498, Renal cancer
EKVX = experiment: NCI five-dose assay; details: Non-small cell lung cancer
OVCAR-4 = experiment: NCI five-dose assay; details: OVCAR-4, Ovarian cancer
RXF393 = experiment: NCI five-dose assay; details: RXF393, Renal cancer
Prostate cancer subpanel = experiment: NCI five-dose assay, subpanel mean
UO-31 = experiment: NCI five-dose assay; details: UO-31, Renal cancer
SN12C = experiment: NCI five-dose assay; details: Renal cancer
M14 = experiment: NCI five-dose assay; details: M14, Melanoma
DU-145 = experiment: NCI five-dose assay; details: DU-145, Prostate cancer
HOP-62 = experiment: NCI five-dose assay; details: HOP-62, Non-small cell lung cancer
SF-539 = experiment: NCI five-dose assay; details: SF-539, CNS cancer
Colon cancer subpanel = experiment: NCI five-dose assay, subpanel mean
NCI/ADR-RES = experiment: NCI five-dose assay; details: Ovarian cancer
OVCAR-8 = experiment: NCI five-dose assay; details: OVCAR-8, Ovarian cancer
NCI-H460 = experiment: NCI five-dose assay; details: NCI-H460, Non-small cell lung cancer
CAKI-1 = experiment: NCI five-dose assay; details: CAKI-1, Renal cancer
KM12 = experiment: NCI five-dose assay; details: KM12, Colon cancer
CCRF-CEM = experiment: NCI five-dose assay; details: Leukemia
OVCAR-3 = experiment: NCI five-dose assay; details: OVCAR-3, Ovarian cancer
SW-620 = experiment: NCI five-dose assay; details: SW-620, Colon cancer
MDA-MB-435 = experiment: NCI five-dose assay; details: MDA-MB-435, Melanoma
PC-3 = experiment: NCI five-dose assay; details: PC-3, Prostate cancer
HT29 = experiment: NCI five-dose assay; details: HT29, Colon cancer
[1] = Homo sapiens, read-out: GI50 Conc. per Cell Lines
[2] = Homo sapiens, 48 h, read-out: LC50 (the source's name)

Q: Which “TGI Conc. per Cell Lines” value (786-0) does the source give for `Cc1ccc(C(=O)CSc2nnc(-c3c[nH]c4ccccc34)n2-c2ccccc2)cc1` [Compound 6h, 2-((5-(1H-Indol-3-yl)-4-phenyl-4H-1,2,4-triazol-3-yl)thio)-1-(p-tolyl)ethenone] here?
A: The value was 31.20 µM.

Q: What about the LC50 (50% lethal concentration) (786-0; Homo sapiens, 48 h) of the same compound?
A: The LC50 (50% lethal concentration) was 66.4 µM.

Q: What about the GI50 (786-0; [1]) of the same compound?
A: Its GI50 is 14.7 µM.

Q: And the CC50 (SNB-75; [2])?
A: The CC50 was 68 µM.

Q: And the GI50 (SNB-75; [1])?
A: Its GI50 is 12.9 µM.

Q: What about the “TGI Conc. per Cell Lines” value (SNB-75) of the same compound?
A: Its value is 29.60 µM.

Q: What about the LC50 (ACHN; Homo sapiens, 48 h) of the same compound?
A: Its LC50 is 62.3 µM.

Q: And the GI50 (ACHN; [1])?
A: The GI50 was 13.7 µM.

Q: And the “TGI Conc. per Cell Lines” value (ACHN)?
A: The value was 29.20 µM.

Q: What about the CC50 (SNB-19; [2]) of the same compound?
A: Its CC50 is 75.3 µM.

Q: What about the GI50 (SNB-19; [1]) of the same compound?
A: The GI50 was 15.8 µM.

Q: And the “TGI Conc. per Cell Lines” value (SNB-19)?
A: Its value is 34.50 µM.

Q: And the “TGI Conc. per Cell Lines” value (A498)?
A: The value was 69.40 µM.

Q: What about the LC50 (A498; Homo sapiens, 48 h) of the same compound?
A: Its LC50 is greater than 100 µM.

Q: And the GI50 (A498; [1])?
A: Its GI50 is 22.1 µM.

Q: What about the CC50 (EKVX; [2]) of the same compound?
A: The CC50 was greater than 100 µM.

Q: What about the GI50 (EKVX; [1]) of the same compound?
A: Its GI50 is 19 µM.

Q: What about the “TGI Conc. per Cell Lines” value (EKVX) of the same compound?
A: Its value is 98.90 µM.

Q: And the LC50 (OVCAR-4; Homo sapiens, 48 h)?
A: The LC50 was greater than 100 µM.

Q: And the GI50 (OVCAR-4; [1])?
A: Its GI50 is 14.5 µM.

Q: What about the “TGI Conc. per Cell Lines” value (OVCAR-4) of the same compound?
A: Its value is 41.50 µM.

Q: And the LC50 (concentration killing 50% of cells) (RXF393; Homo sapiens, RXF 393, 48 h)?
A: The LC50 (concentration killing 50% of cells) was 61.5 µM.

Q: And the GI50 (RXF393; Homo sapiens, RXF 393, read-out: GI50 Conc. per Cell Lines)?
A: Its GI50 is 13.6 µM.

Q: What about the “TGI Conc. per Cell Lines” value (RXF393) of the same compound?
A: The value was 28.90 µM.

Q: What about the GI50 (Prostate cancer subpanel; Homo sapiens, average sensitivity of all cell lines of the Prostate cancer subpanel, read-out: GI50 Subpanel MID b) of the same compound?
A: The GI50 was 8.42 µM.

Q: What about the “GI50 Selectivity Ratio (MID a/MID b)” value (Prostate cancer subpanel; Prostate cancer subpanel) of the same compound?
A: Its value is 2.29.

Q: What about the CC50 (UO-31; [2]) of the same compound?
A: The CC50 was 69.5 µM.

Q: What about the GI50 (UO-31; [1]) of the same compound?
A: Its GI50 is 14.2 µM.

Q: What about the “TGI Conc. per Cell Lines” value (UO-31) of the same compound?
A: Its value is 31.40 µM.

Q: And the CC50 (SN12C; [2])?
A: The CC50 was greater than 100 µM.

Q: And the GI50 (SN12C; [1])?
A: The GI50 was 19.4 µM.

Q: What about the “TGI Conc. per Cell Lines” value (SN12C) of the same compound?
A: The value was 48.90 µM.

Q: And the CC50 (M14; [2])?
A: Its CC50 is greater than 100 µM.

Q: And the GI50 (M14; [1])?
A: The GI50 was 32.1 µM.

Q: What about the “TGI Conc. per Cell Lines” value (M14) of the same compound?
A: The value was greater than 100 µM.

Q: What about the “TGI Conc. per Cell Lines” value (DU-145) of the same compound?
A: The value was greater than 100 µM.

Q: And the CC50 (DU-145; [2])?
A: Its CC50 is greater than 100 µM.

Q: And the GI50 (DU-145; [1])?
A: The GI50 was 4.43 µM.

Q: And the “TGI Conc. per Cell Lines” value (HOP-62)?
A: Its value is 35.90 µM.

Q: What about the CC50 (HOP-62; [2]) of the same compound?
A: Its CC50 is 80 µM.

Q: What about the GI50 (HOP-62; [1]) of the same compound?
A: Its GI50 is 16.1 µM.

Q: What about the CC50 (SF-539; [2]) of the same compound?
A: The CC50 was 54.2 µM.

Q: And the GI50 (SF-539; [1])?
A: Its GI50 is 15 µM.

Q: What about the “TGI Conc. per Cell Lines” value (SF-539) of the same compound?
A: The value was 28.50 µM.

Q: And the “GI50 Selectivity Ratio (MID a/MID b)” value (Colon cancer subpanel; Colon cancer subpanel)?
A: The value was 0.76.

Q: And the GI50 (Colon cancer subpanel; Homo sapiens, average sensitivity of all cell lines of the Colon cancer subpanel, read-out: GI50 Subpanel MID b)?
A: The GI50 was 25.4 µM.

Q: What about the LC50 (NCI/ADR-RES; Homo sapiens, 48 h) of the same compound?
A: The LC50 was 76.8 µM.

Q: What about the GI50 (NCI/ADR-RES; [1]) of the same compound?
A: Its GI50 is 11.9 µM.

Q: And the “TGI Conc. per Cell Lines” value (NCI/ADR-RES)?
A: Its value is 30.20 µM.

Q: And the CC50 (OVCAR-8; [2])?
A: The CC50 was greater than 100 µM.

Q: And the GI50 (OVCAR-8; [1])?
A: Its GI50 is 24.5 µM.

Q: What about the “TGI Conc. per Cell Lines” value (OVCAR-8) of the same compound?
A: The value was “˃100 µM”.

Q: And the CC50 (NCI-H460; [2])?
A: Its CC50 is 63.5 µM.

Q: And the GI50 (NCI-H460; [1])?
A: The GI50 was 15.2 µM.

Q: What about the “TGI Conc. per Cell Lines” value (NCI-H460) of the same compound?
A: Its value is 31.00 µM.

Q: What about the “TGI Conc. per Cell Lines” value (CAKI-1) of the same compound?
A: Its value is 29.80 µM.

Q: What about the LC50 (CAKI-1; Homo sapiens, 48 h) of the same compound?
A: The LC50 was 59.4 µM.

Q: What about the GI50 (CAKI-1; [1]) of the same compound?
A: The GI50 was 14.9 µM.

Q: And the CC50 (KM12; [2])?
A: The CC50 was greater than 100 µM.

Q: And the GI50 (KM12; [1])?
A: Its GI50 is 36.1 µM.

Q: And the “TGI Conc. per Cell Lines” value (KM12)?
A: Its value is greater than 100 µM.

Q: And the CC50 (CCRF-CEM; [2])?
A: Its CC50 is greater than 100 µM.

Q: What about the GI50 (CCRF-CEM; [1]) of the same compound?
A: Its GI50 is 54.4 µM.

Q: What about the “TGI Conc. per Cell Lines” value (CCRF-CEM) of the same compound?
A: The value was “˃100 µM”.

Q: What about the LC50 (OVCAR-3; Homo sapiens, 48 h) of the same compound?
A: The LC50 was greater than 100 µM.

Q: And the GI50 (OVCAR-3; [1])?
A: Its GI50 is 18 µM.

Q: And the “TGI Conc. per Cell Lines” value (OVCAR-3)?
A: The value was 43.20 µM.

Q: What about the CC50 (SW-620; [2]) of the same compound?
A: Its CC50 is greater than 100 µM.

Q: What about the GI50 (SW-620; [1]) of the same compound?
A: Its GI50 is 30.3 µM.

Q: And the “TGI Conc. per Cell Lines” value (SW-620)?
A: The value was greater than 100 µM.

Q: What about the CC50 (MDA-MB-435; [2]) of the same compound?
A: Its CC50 is greater than 100 µM.

Q: What about the GI50 (MDA-MB-435; [1]) of the same compound?
A: Its GI50 is 22.8 µM.

Q: What about the “TGI Conc. per Cell Lines” value (MDA-MB-435) of the same compound?
A: Its value is 65.40 µM.

Q: What about the CC50 (PC-3; [2]) of the same compound?
A: Its CC50 is greater than 100 µM.

Q: And the GI50 (PC-3; [1])?
A: The GI50 was 12.4 µM.

Q: What about the “TGI Conc. per Cell Lines” value (PC-3) of the same compound?
A: Its value is 37.80 µM.

Q: What about the “TGI Conc. per Cell Lines” value (HT29) of the same compound?
A: Its value is 50.50 µM.

Q: What about the CC50 (HT29; Homo sapiens, HT-29, 48 h, read-out: LC50 (the source's name)) of the same compound?
A: Its CC50 is greater than 100 µM.

Q: What about the GI50 (HT29; Homo sapiens, HT-29, read-out: GI50 Conc. per Cell Lines) of the same compound?
A: Its GI50 is 15.6 µM.
